Assay [1] relates to C3H/He mice. Description: Trichogenous ratio, Fucoidan Bf combined with carpronium chloride or minoxidil (Example 19). It is filed as in vivo, mouse. The settings on record: for Trichogenous Ratio (%) (Trichogenous Area/Shaved Area): 200 μL once a day, 6 cases; for Trichogenous Ratio (%) (Trichogenous Area/Shaved Area) / Number of Individuals with Trichogenous Ratio of 60% or More: twenty-first day after shaving. How it is done: Male C3H/He mice were purchased from Nippon SLC and used for an experiment from 8 week-old after pre-breeding the mice. The hair on the backside of each mouse was cut with hair clippers, and thereafter shaved with a razor. […] The resulting ethanol solution was applied onto the above hair-cut site of the backside of the mice in an amount of 200 μL per mouse. To the control group, 30% ethanol solution was similarly applied. The mice were administered once a day, for consecutive days. The administered sites were observed over the passage of time from the day of the beginning of administration (the day following the shaving), and the trichogenous area was determined on the twenty-first day after shaving and expressed as the ratio (%) to the shaved area.

In assay [2] the test system is C3H/He mice. Description: Hair restoring effect of sulfated monosaccharides, scoring as in Example 13(3) (Example 14(2)). The class given is in vivo, mouse. The note with it: 3% in 50% ethanol, 200 μL once a day, score 0-4. How it is done:
The administered site was observed over the passage of time from the beginning of administration, and a change in the skin color tone was evaluated by scoring. Specifically, the scoring criteria were defined as follows: Score 0: no change in the skin color, Score 1: the skin color being changed to blue, Score 2: the skin color being changed to black-blue to gray, Score 3: trichogenous state being observed, and Score 4: the state before the hair cutting being almost restored. (3) Male C3H/He mice were purchased from Nippon SLC and used for an experiment from 8 week-old after pre-breeding the mice. The hair on the backside of each mouse was cut with hair clippers, and thereafter shaved with a razor. (2) The hair restoring effect of the sulfated glucose prepared in item (1) of Example 14 was studied in the same manner as in item (3) of Example 13. Here, the sulfated glucose was dissolved in 50% ethanol in a concentration of 3%, and the resulting solution was applied onto the backside of the mice once a day in an amount of 200 μL per mouse. To the control group, 50% ethanol alone was applied. […] In addition, similar tests were carried out for the sulfated fucose, the sulfated mannose, the sulfated galactose, the sulfated xylose, the sulfated 2-deoxy-glucose and the sulfated talose.

The test system of assay [3] is whiskers with the hair follicles of C3H/He mice. In words: Culture of mouse whiskers with hair follicles, length of grown whisker (Examples 15-18). It is filed as cell-based. The note with it: whiskers of 6 day-old mice (Table 14). The source says:
(1) Two day-old male C3H/He mice were purchased from Nippon SLC together with the mother mice and used for an experiment from 5 day-old. The mice were sacrificed by exsanguination, and the whiskers together with the subcutaneous tissues were collected using scissors and tweezers. Further, the whiskers with the hair follicles were separated in a petri dish under the microscope according to the method by Ogawa et al. (J. Invest. Dermatol 103: 306-309, 1994). Fourteen to sixteen whiskers were collected from the right and left sides per mouse. […] Here, the given concentrations of each sample added are respectively expressed as the concentration per mL medium (mg/mL) in Table 10. […] The length of whisker was determined to the order of 0.1 mm before the beginning and after the termination of the culture under the microscope using a caliper. […] In addition, Student's t-test was used for test of significance, and P value was determined against the control group. […] The hair restoring effects for the fucoidan derived from Kjellmaniella crassifolia described in item (1) of Example 1 and 7-12SFd-F described in item (3) of Example 2 were evaluated in the same manner as in item (1) of Example 15. […] The hair restoring effects for Fucoidan Bf described in item (1) of Example 16 and F-rich fucoidan described in item (2) of Example 16 were evaluated in the same manner as in item (1) of Example 15. […]

Consider `COC(=O)CCC[N+](C)(C)C.[Cl-]` [Carpronium Chloride, carpronium chloride], for which, in the assay with C3H/He mice [1] (0.5% in 30% ethanol), the “Trichogenous Ratio (%) (Trichogenous Area/Shaved Area)” value was found to be 23.9 ± 4.9% and the “Number of Individuals with Trichogenous Ratio of 60% or More” value is 0/6. The hair restoring effect result in the assay on C3H/He mice [1] (administration by application alone (0.5%)) is listed as “No hair restoring effect”.
For `Nc1cc(N2CCCCC2)nc(N)[n+]1[O-]` [Minoxidil, minoxidil], in the assay with C3H/He mice [1] (0.1% in 30% ethanol), the “Trichogenous Ratio (%) (Trichogenous Area/Shaved Area)” value is reported as 42.9 ± 5.5% and the “Number of Individuals with Trichogenous Ratio of 60% or More” value was 1/6. In the assay with C3H/He mice [1] (1% in 30% ethanol), the “Trichogenous Ratio (%) (Trichogenous Area/Shaved Area)” value came out at 69.1 ± 13.9% and the “Number of Individuals with Trichogenous Ratio of 60% or More” value is recorded as 4/6.
For the compound “sulfated (—SO3—Na^+) D-(+)-glucose [Sulfated Glucose]”, the “Average Score” value with C3H/He mice [2] (duration of administration 11 days) came to 0.6; in the assay with C3H/He mice [2] (duration of administration 12 days), 0.6; in the assay with C3H/He mice [2] (duration of administration 13 days), 1.0; in the assay with C3H/He mice [2] (duration of administration 14 days) it was 1.6; with C3H/He mice [2] (duration of administration 15 days), 1.8. Moreover, the “Length of Grown Whisker (mm) (Average Value ± Standard Error)” value in assay [3] (0.1 mg/mL) is 0.39 ± 0.11 mm; in assay [3] (1 mg/mL), 1.31 ± 0.31 mm.
